The subject of assay [1] is Human Follicle Dermal Papilla Cells (HFDPC). The assay can be described thus: Hair follicle cell proliferation test (Click-iT EdU flow cytometry). The assay is classed as cell-based. From the text:
Hair follicle cells are the foundation of hair. In hair follicle cells at the growth phase, cells in hair follicle bulbs of the hair root can divide once a day. If the proliferation of the hair follicle cells is promoted, the effect of promoting hair growth can be achieved. In this test, the proliferation of human follicle dermal papilla cells treated with the compound I was examined.
Cell line: Human Follicle Dermal Papilla Cells (HFDPC) (purchased from PromoCell; Cat. C-12071), hereinafter referred to as HFDPC cells.
Detection kit: Cell proliferation ELISA reagent detection kit (Click-iT™ Plus EdU Flow Cytometry Assay Kits-Alexa Fluor™ 488 picolyl azide, 50 tests, brand Invitrogen, model C10632), containing composition C (Dimethyl sulfoxide DMSO), composition D (Click-iT™ fixative), composition E (Click-iT™ saponin-based permeabilization and wash reagent), composition F (Copper protectant), and composition G (Click-iT™ EdU buffer additive).
Firstly. […]
The supernatant was removed. […] Finally, a fluorescence signal was measured with a flow cytometer (excitation light: 488 nm; scattered light: 527 nm and 590 nm).
(§1) Here, whether two groups compared have a statistically significant difference or not is analyzed with a single-tailed student t-test to obtain their p-values. […]
Background: In flow cytometry, cells or beads pass a laser one at a time.

Assay [2] has as its system dihydrotestosterone content in human prostate cell LNcap. The experiment in a line: Test of banana flower extract to inhibit dihydrotestosterone (DHT ELISA in testosterone-treated LNcap cells). The assay is classed as cell-based. To be noted: testosterone 2 h, blank group 32.8 pg/mL. The protocol:
A significant increase in the production of dihydrotestosterone (DHT) in hair follicles of the forehead can be observed in young bald female patients. If the dihydrotestosterone can be inhibited, the effect of caring hair follicles and promoting hair growth is achieved. In this test, whether the content of the dihydrotestosterone in human prostate cells treated with different concentrations of banana extract was reduced or not was measured, and a common therapeutic drug Propecia for alopecia androgenetica was used as control.
Cell line: Human prostate cell LNcap (purchased from BCRC; access number Cat. 60088), hereinafter referred to as LNcap cell.
Cell medium (human prostate cell LNcap cell medium): RPMI 1640 Medium (RPMI), powder (Gibco; Cat. 31800-022), 10% fetal bovine serum (FBS) (Gibco; Cat. 10437-028) and 1% Antibiotic-Antimycotic (AA) (Gibco; Cat. 15240-062).
Reagent: 1×DPBS (Gibco, Cat. 14200-075), trypsin (1× Trypsin-EDTA, purchased from Thermo, Cat. FNN0011), Propecia (also referred to as Finasteride, purchased from Sigma; Cat. F1293), Testosterone (purchased from Sigma; Cat. T1500), and cell lysis buffer (purchased from RIPA Lysis and Extraction Buffer (Thermo #89900).
Detection kits: dihydrotestosterone ELISA Reagent Detection Kits (USCN; CEA443Ge).
Firstly, LNcap cells were implanted into a 6-well cell culture plate in a density of 1×10^5 LNcap cells and cultured at 37° C. in a 5% carbon dioxide incubator for 24 h.
The cultured LNcap cells were divided into an experimental group A, an experimental group B, a control group and a blank group. […]
Next, a 200 μL 1× cell lysis buffer was added into the tube to lyse the LNcap cells. […] Finally, the dihydrotestosterone content in the LNcap cells was detected by using a dihydrotestosterone ELISA kit. […]
as §1
On the technique in general: In an ELISA, binding on a coated surface is turned into a signal by an enzyme label.

For `O=C(O)CC(O)(CC(=O)O)C(=O)NCCc1ccc(O)c(O)c1` [compound I, N-β-citroyldopamine], the “number of the HFDPC cells (blank group = 100%)” value in assay [1] (10 μg/mL, Example 3, FIG. 2) was found to be 118.81%. Further, the dihydrotestosterone content in assay [2] (5 μg/mL (experimental group B)) worked out at 25.20 pg/mL; in assay [2] (10 μg/mL (experimental group A)), 25.03 pg/mL.

As to `CC(C)(C)NC(=O)[C@H]1CC[C@H]2[C@@H]3CC[C@H]4NC(=O)C=C[C@]4(C)[C@H]3CC[C@]12C` [Propecia, Finasteride, reference compound], the dihydrotestosterone content in assay [2] (20 μg/mL (control group)) was 17.16 pg/mL.

`CC(=O)OCC1O[C@H](O[C@]2(CO)O[C@H](COC(C)=O)C(O)C2OC(=O)/C=C/c2ccc(O)cc2)C(OC(C)=O)C(OC(C)=O)[C@@H]1O` (stereo partly drawn) [compound II, 6,2′,3′,6′-O-tetraacetyl-3-O-trans-p-coumaroylsucrose]: the “number of the HFDPC cells (blank group = 100%)” value in assay [1] (100 μM, Example 4, FIG. 3) turned out to be 112.54%.

Source of the values: US20240197809A1, “HAIR CARE COMPOSITION AND BANANA FLOWER EXTRACT AND METHOD FOR HAIR CARE USING THE SAME” (TCI CO., LTD., priority 2022, published 2024).
